Patent US20170114128A1, “USE OF TGF-BETA ANTAGONISTS OF TREAT TYPE-2 DIABETES” (ALBERT EINSTEIN COLLEGE OF MEDICINE, INC., priority 2014, published 2017)
*1 amine or outer side, *2 acyl side, *3 side chain or, on linkers, in order; H or OH if unused. Where a SMILES comes first, the peptide text is derived from it. Bridges are numbered along the chain shown (N, C = ends). Roman numbers before positions name the chains, in order. [ ]: non-standard residue; d: D form. Actinocin(9to1) = Cc1c2oc3c(C)ccc(C(=O)[*:1])c3nc-2c(C(=O)[*:2])c(N)c1=O; NMeV = CN[C@H](C(=O)O)C(C)C; Sar = CNCC(=O)O

Assays:
[1] = tested on: old mice maintained on a normal chow; assay: Third-ventricle injection of TGFβ antagonist, GTT and ITT in aging paradigm; assay type: in vivo; details: hypothalamic third-ventricle injection
From the text: (§1) Central TGFβ blockade reverses glucose disorder under obesity or aging: It was studied whether TGFβ blockade could be applied to the CNS in order to reverse glucose and insulin disorders under disease conditions. To address this question, a mouse model was employed with HFD-induced obesity and therefore glucose and insulin intolerance. In this study, C57BL/6 mice were maintained under a HFD vs. a chow for 3 months. Subsequently, TGFβ antagonist SB431542 vs. vehicle was administrated to overnight-fasted mice through pre-implanted cannula. […] In parallel, using aging paradigm, it was further asked if TGFβ blockade could be used to intervene with glucose and insulin disorders independently of HFD feeding. To address this question, a similar procedure was applied to young vs. old mice; both mice were maintained on a normal chow since weaning. As shown in FIG. 7e-h, aging was associated with impairment of glucose tolerance and insulin tolerance in control group. […] Altogether, central inhibition of TGFβ through a pharmacological approach acutely normalizes the brain function to improve glucose and insulin homeostasis and treat type-2 diabetes.
(§2) Animals. […] Food intake and body weight of mice were measured using a laboratory scale. […] Blood glucose levels during GTT and ITT were measured with LifeScan® blood glucose monitoring system. […]

[2] = tested on: C57BL/6 mice with HFD-induced obesity; assay: Third-ventricle injection of TGFβ antagonist, GTT and ITT in mice with HFD-induced obesity; assay type: in vivo; details: HFD for 3 months; single injection in the third ventricle, overnight-fasted; vs vehicle; 2-hour treatment duration
From the text: as §1, §2

[3] = tested on: hypothalamic GT1-7 cells; assay: IκBα mRNA levels in GT1-7 cells after TGF-β1 treatment; assay type: cell-based; details: transcription inhibitor added to TGF-β1-treated cells
From the text: TGF-β degrades IκBα mRNA to atypically activate NF-κB: RNA SGs/PBs have the function to degrade mRNAs by targeting the AU-rich element (AUE) at the 3′ untranslated region (UTR) (36-38). […] This information led to the suspicion that TGF-β could work to degrade IκBα mRNA. […] To test if TGF-β induced IκBα mRNA decay is accountable for the glucose metabolism disorder, an experiment was designed to study if the pro-diabetic effect of brain TGF-β excess could be reversed through directly increasing hypothalamic IκBα mRNA. Using an approach which was established previously (23), a lentiviral system was employed to deliver exogenous Iκbα mRNA into the mediobasal hypothalamus of chow-fed C57BL/6 mice, and indeed, this lentivirus-delivered Iκbα mRNA prevented TGF-β1 injection from activating hypothalamic NF-κB (FIG. 5f). Metabolic analysis confirmed that this treatment attenuated the effect of TGF-β1 from impairing insulin-dependent glucose control (FIG. 5g).
Cell culture. GT1-7 cells were cultured as described previously (14). Briefly, GT1-7 cells were maintained in Dulbecco's Modified Eagle's Medium (Invitrogen) with 10% fetal bovine serum (Hyclone) and penicillin/streptomycin (Invitrogen), at 37° C. in a humidified atmosphere containing 5% CO2. Cells were fasted in serum-free medium for an overnight period, and then were subjected to TGF-β1 treatment at the indicated dose and time course.

SMILES	glucose intolerance (GTT) [1]	insulin intolerance (ITT) [1]	glucose intolerance (GTT) [2]	insulin intolerance (ITT) [2]	IκBα mRNA decay [3]
NC(=O)c1ccc(-c2nc(-c3ccc4c(c3)OCO4)c(-c3ccccn3)[nH]2)cc1 [SB431542, 4-[4-(1,3-benzodioxol-5-yl)-5-(2-pyridinyl)-1H-imidazol-2-yl]benzamide]	significant reductions	significant reductions	significantly reduced	significantly reduced	
Cc1c2oc3c(C)ccc(C(=O)N[C@@H]4C(=O)N[C@H](C(C)C)C(=O)N5CCC[C@H]5C(=O)N(C)CC(=O)N(C)[C@@H](C(C)C)C(=O)O[C@@H]4C)c3nc-2c(C(=O)N[C@@H]2C(=O)N[C@H](C(C)C)C(=O)N3CCC[C@H]3C(=O)N(C)CC(=O)N(C)[C@@H](C(C)C)C(=O)O[C@@H]2C)c(N)c1=O [actinomycin D, reference compound] (I: T[dV]P[Sar][NMeV] / II: T[dV]P[Sar][NMeV]; ester I:1-I:C, II:1-II:C; linker I:N-II:N via Actinocin(9to1))					further accelerated
